# Earlier results, collected in paper PMC8395767, “Worsening of the Toxic Effects of (±)Cis-4,4′-DMAR Following Its Co-Administration with (±)Trans-4,4′-DMAR: Neuro-Behavioural, Physiological, Immunohistochemical and Metabolic Studies in Mice” (International Journal of Molecular Sciences, 2021).
# Legend:
# [1] = test system: DAT/SERT; design: method as in PMID 30776375; settings: cited from earlier work
# [2] = molecular target: 5-HT2A; design: method as in PMID 29908239; settings: read-out: Ki at 5-HT2A receptor; cited from earlier work
# [3] = test system: rat brain synaptosomes; design: method as in PMID 24841869; settings: compared with d-amphetamine, aminorex and 4-MAR; cited from earlier work
# [4] = test system: noradrenaline (NET) transporter; design: method as in PMID 30776375, PMID 25331619, PMID 29908239; settings: in vitro; cited from earlier work
# [5] = test system: dopamine (DAT) transporter; design: method as in PMID 30776375, PMID 25331619, PMID 29908239; settings: in vitro; cited from earlier work
# [6] = test system: serotonin transporters; design: method as in PMID 30776375, PMID 25331619, PMID 29908239; settings: in vitro; cited from earlier work
# [7] = molecular target: 5-HT2C; design: method as in PMID 29908239; settings: read-out: Ki at 5-HT2C receptor; cited from earlier work
compound,measurement,setting,value
"Cc1ccc(C2OC(N)=NC2C)cc1 (stereo not shown) [4,4′-DMAR, 4-Methyl-5-(4-methylphenyl)-4,5-dihydrooxazol-2-amine]",DAT/SERT ratio,[1],0.4
same,Ki,[2],~8.9 µM
same,Release of 5-HT from rat brain synaptosomes,[3],most potent releaser
same,Inhibitory activity on noradrenaline transporter (NET),[4],potent inhibitory activity
same,Inhibitory activity on dopamine transporter (DAT),[5],potent inhibitory activity
same,Inhibitory activity on serotonin transporters,[6],potent inhibitory activity
same,Ki,[7],~11 µM
